Experimental data as given in patent US20220306585A1, “PYRAZOLE DERIVATIVES FOR CONTROLLING ARTHROPODS” (Bayer Animal Health GmbH, priority 2019, published 2022).

What was measured:
[1] = tested on: Dermacentor variabilis nymph; assay: Antiparasitic activity after administration to rats: ticks; type: in vivo; settings: 11.97 mg/kg sc, Dermacentor variabilis nymph
Method: Measurement of the Antiparasitic Activity after Administration of a Prodrug to Rats Compounds were dissolved in the appropriate volume of glycerol formal (p.a.) just before application to the animals (dose volume was adjusted to 0.03 mL/kg bodyweight). 5 rats per group were either injected intraperitoneally or subcutaneously. Rats were infested with 30 Dermacentor variabilis nymphs on study days −2, 7, 14, 21, 28, 35 and 30 adult Ctenocephalides fleas on study days −1, 8, 15, 22, 29, 36. Parasite counts were performed on study days 2, 9, 16, 23, 30, 37. Percent efficacy was calculated as arithmetic mean parasite numbers as life attached tick numbers and live flea numbers of the respective study group in comparison to parasite counts on a placebo-treated control group. Infestation of groups with less than 75% efficacy on two consecutive counting occasions will terminated for the respective parasite.

[2] = Measurement of stability of prodrugs in buffer at pH 7.4; type: physicochemical; settings: PBS buffer pH 7.4, 37° C., HPLC peak area, read-out: % Recovery after 24 h (stability at pH 7.4)
Summary of the method: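 Test compound (0.15 mg) in DMSO/acetonitrile was mixed with PBS pH 7.4 and held at 37 °C for 24 h. Remaining compound was followed by HPLC as peak area percentage of total area. The final time point was also analysed by HPLC-MS.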

In the case of `N#CC1(N(COC(=O)/C=C/C(=O)O)C(=O)c2cc(-c3cnn(-c4c(Cl)cc(C(F)(C(F)(F)F)C(F)(F)F)cc4OC(F)(F)F)c3)ccc2Cl)CC1` [Example 13, (2E)-4-{[(2-Chloro-5-{1-[2-chloro-4-(1,1,1,2,3,3,3-heptafluoropropan-2-yl)-6-(trifluoromethoxy)phenyl]-1H-pyrazol-4-yl}benzoyl)(1-cyanocyclopropyl)amino]methoxy}-4-oxobut-2-enoic acid], the “In-vivo Efficacy SD2” value ([1]; study day 2) is reported as 100%, the “In-vivo Efficacy SD9” value ([1]; study day 9) is reported as 100% and the “In-vivo Efficacy SD16” value ([1]; study day 16) is reported as 99%. The “In-vivo Efficacy SD23” value ([1]; study day 23) was 77%, the “In-vivo Efficacy SD30” value ([1]; study day 30) was 59% and the “In-vivo Efficacy SD37” value ([1]; study day 37) was 49%. For the same compound, the recovery at 24 h, 0.1 mg/mL [2] was 97%.
